Measurements: publication PMC9276577, “SIRT1 pharmacological activation rescues vascular dysfunction and prevents thrombosis in MTHFR deficiency” (Cellular and Molecular Life Sciences: CMLS, 2022)

Legend:
SIRT1 [1] = target: T1, SIRT1 (Homo sapiens, UniProt Q96EB6); assay: CETSA in MCF7 cells (Tm raised from […] °C to […] °C); format: cell-based; design: endogenous SIRT1 in MCF7 cells
T1 sequence (Q96EB6 2-747): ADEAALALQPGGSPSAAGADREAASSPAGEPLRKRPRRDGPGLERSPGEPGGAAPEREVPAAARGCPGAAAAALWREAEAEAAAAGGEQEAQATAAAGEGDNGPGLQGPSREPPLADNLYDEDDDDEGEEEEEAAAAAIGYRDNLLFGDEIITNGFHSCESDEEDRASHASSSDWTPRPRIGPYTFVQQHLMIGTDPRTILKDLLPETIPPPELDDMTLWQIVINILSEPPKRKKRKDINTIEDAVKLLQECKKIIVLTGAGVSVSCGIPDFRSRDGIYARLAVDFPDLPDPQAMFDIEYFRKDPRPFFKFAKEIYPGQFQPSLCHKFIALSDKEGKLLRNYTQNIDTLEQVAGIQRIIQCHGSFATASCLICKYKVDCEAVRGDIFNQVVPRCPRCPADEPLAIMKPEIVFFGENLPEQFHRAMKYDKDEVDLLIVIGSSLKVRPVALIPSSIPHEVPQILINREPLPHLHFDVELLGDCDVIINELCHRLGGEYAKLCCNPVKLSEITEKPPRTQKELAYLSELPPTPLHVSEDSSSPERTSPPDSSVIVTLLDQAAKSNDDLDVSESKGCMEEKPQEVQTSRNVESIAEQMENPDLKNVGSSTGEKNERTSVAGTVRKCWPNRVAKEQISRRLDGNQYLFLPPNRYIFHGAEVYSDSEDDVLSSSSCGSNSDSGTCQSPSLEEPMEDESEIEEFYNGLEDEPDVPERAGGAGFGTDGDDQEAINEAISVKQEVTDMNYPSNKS

SIRT1 [2] = target: T1, SIRT1; assay: NMase-coupled fluorescence deacetylase assay (activation, AC50) on purified SIRT1; binding supported by tyrosine fluorescence quenching and CETSA in MCF7 cells; format: biochemical; design: SIRT1-GST purified from E. coli BL21 (full-length SIRT1 after thrombin cleavage for fluorescence quenching); details: read-out: EC50 (the source's name)

| AC50 (SIRT1 [2]) [µM] | Compound | CETSA in MCF7 cells (Tm raised from 46.5 °C to 51.4 °C) (SIRT1 [1]) [°C] |
| --- | --- | --- |
| – | Oc1ccc(/C=C/c2cc(O)cc(O)c2)cc1 [RSV, resveratrol] | 51.4 |
| 20.11 ± 0.15 | ISIDE11 | – |
